By ED50 is commonly meant the midpoint of the dose-response relation.

What all share (assay type): in vivo
Test [1] relates to mice. As to the kind of experiment: Climbing mice assay (antipsychotic activity, apomorphine-induced climbing). Particulars: Mus musculus; ip, 30 minutes prior to apomorphine 1.5 mg/kg s.c.; CK-1 male mice. How it is done: Antipsychotic activity is determined in the climbing mice assay by methods similar to those described by P. Protais, et al., Psychopharmacol., 50, 1 (1976) and B. Costall, Eur. J. Pharmacol., 50, 39, (1978).
The subject CK-1 male mice (23-27 grams) are group-housed under standard laboratory conditions. The mice are individually placed in wire mesh stick cages (4'×4" by 10") and are allowed one hour for adaptation and exploration of the new environment. Then apomorphine is injected subcutaneously at 1.5 mg/kg, a dose causing climbing in all subjects for 30 minutes. Compounds to be tested for antipsychotic activity are injected intraperitoneally 30 minutes prior to the apomorphine challenge at a screening dose of 10 mg/kg.
For evaluation of climbing, 3 readings are taken at 10, 20 and 30 minutes after apomorphine administration according to the following scale:
4 paws on bottom (no climbing)
2 paws on the wall (rearing)
4 paws on the wall (full climb)
Mice consistently climbing before the injection of apomorphine are discarded.
With full-developed apomorphine climbing, the animals are hanging onto the cage walls, rather motionless, over longer periods of time. By constrast, climbs due to mere motor stimulation usually last only a few seconds.
The climbing scores are individually totaled (maximum score: 6 per mouse over 3 readings) and the total score of the control group (vehicle intraperitoneally; apomorphine subcutaneously) is set to 100%. ED50 values with 95% confidence limits, calculated by a linear regression analysis of some of the compounds of this invention are presented in Table 1.

Test [2] relates to mice. As to the kind of experiment: 2-phenyl-1,4-benzoquinone-induced writhing test in mice (analgesic activity). Particulars: Mus musculus, sc, read-out: Phenylquinone Writhing ED50. From the text: Compounds of the present invention are also useful as analgesic agents due to their ability to alleviate pain in mammals. […] Exptl. Biol. Med., 95,729 (1957)]
Another test has as its system rats. As to the kind of experiment: Geller-conflict paradigm with rats (anxiolytic activity). Particulars: 10 mg/kg i.p.; pretreat interval usually one-half hour; male rats. From the text:
Compounds I of the present invention are also useful as anxiolytic agents. […] See Geller, Irving and Seifter, Psychopharmacologia Col. 1, 482-492 (1962). Male rats are used as test subjects. They are housed individually and food and water are available ad libitum until they are 300 to 400 grams prior to the start of training. Subsequently they are food deprived until their body weight is reduced to approximately 80% of original and it is maintained at this level by a restricted food diet.
The programming and test equipment consists of solid state devices, shockers and cages within sound-attentuated environmental enclosures. The data is recorded on both solid state print-out counters and cumulative recorders. The cages are equipped with a house-light, a single-lever, cue-lights, a liquid dipper, a speaker and a grid-floor connected to a shocker. Sweetened condensed milk delivered by the liquid-dipper serve as the positive reinforcement for all subjects.
The subjects are trained to lever-press for the milk reward in two distinct response-reward sections. In the anxiety or "conflict" segment, signaled by onset of both tone and cue-lights, a dipper of milk is delivered in response to each lever-press (CRF schedule of reinforcement). However lever presses during this period are also accompanied by a 40 m sec pulse of aversive footshock through the grid-floor. […]

Counter-ions that a name gives are not always drawn.

As to `O=C1CC2(CCCC2)CC(=O)N1OCCCN1CCN(c2nsc3ccccc23)CC1` [Example 11, 8-[3-[4-(1,2-Benzisothiazol-3-yl)-1-piperazinyl]propyloxy]-8-azaspiro[4.5]decan-7,9-dione hydrochloride hemihydrate], the 50% effective dose (ED50) with mice [1] turned out to be 5.7 mg/kg; in the test with mice [2], 0.9 mg/kg.
`CNC1=Nc2ccc(Cl)cc2C(c2ccccc2)=[N+]([O-])C1` [Chlorodiazepoxide, reference compound]: the “Geller CRF ratio” value in the test on rats was determined as 3.6.
Take `COc1ccccc1N1CCN(CCCON2C(=O)CC3(CCCC3)CC2=O)CC1` [8-[3-[4-(2-Methoxyphenyl)-1-piperazinyl-propyloxy]-8-azaspiro[4.5]decan-7,9-dione hydrochloride hemihydrate]: in the test on mice [2], the 50% effective dose (ED50) stood at 1.1 mg/kg.
On the same count and under the same terms, under `CC(C)=CCN1CCC2(C)c3cc(O)ccc3CC1C2C` (centres unmarked) [Pentazocine, reference compound] stands 1.3 mg/kg.
In the case of `Cc1cccc(N2CCN(CCCON3C(=O)CC4(CCCC4)CC3=O)CC2)c1` [Example 5, 8-[3-[4-(3-Methylphenyl)-1-piperazinyl]propyloxy]-8-azaspiro[4.5]decan-7,9-dione hydrochloride hemihydrate], the “Geller CRF ratio” value in the test on rats is recorded as 7.5.
In turn, `CN1CCN(C2=Nc3cc(Cl)ccc3Nc3ccccc32)CC1` [Clazapine, reference compound] returned an ED50 with mice [1] of 8.1 mg/kg.
Still for that read-out and setting: under `COc1cccc(N2CCN(CCCON3C(=O)CC4(CCCC4)CC3=O)CC2)c1` [Example 8, 8-[3-[4-(3-Methoxyphenyl)-1-piperazinyl]propyloxy]-8-azaspiro-[4.5]decan-7,9-dione hydrochloride hemihydrate] stands 10.9 mg/kg.
